Some test systems named below: CCRF-CEM; SNB-75; KM12; OVCAR-4; U-251; UO-31; 786-0; RXF 393; HCT-15; HCT-116; IGROV-1; NCI-H522; COLO 205; HOP-92; SW-620; NCI/ADR-RES; T47D; MDA-MB-231; MDA-MB-435.
Common to all, as to test: NCI-60 cell line screen, 48 h

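Cells were grown in 96-well plates and exposed to each compound for 48 hours at five concentrations; endpoints were interpolated linearly between bracketing concentrations, or set to the highest concentration if not reached. GI50 = concentration required for 50% inhibition of growth.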 The source made the active and inactive calls. Rule as the data show it: active = GI50 up to about 1.1 µM and inactive = higher. Bounds are passed on as bounds.

In the case of `Cc1cc2c(ccc3c(C)cc(=O)oc32)o1`, the GI50 was > 100 µM (inactive) in the test with CCRF-CEM; 35.6 µM (inactive) with SNB-75; > 100 µM (inactive) with KM12; > 100 µM (inactive) in the test with OVCAR-4; > 100 µM (inactive) in the test on U-251; 98.9 µM (inactive) in the test on UO-31. Also, the GI50 in the test on 786-0 was > 100 µM (inactive); in the test on RXF 393, 78.3 µM (inactive); with HCT-15, above 100 µM; in the test on HCT-116 it was > 100 µM (inactive); in the test with IGROV-1, > 100 µM (inactive); in the test on NCI-H522, > 83.6 µM (inactive). In addition, the GI50 in the test with COLO 205, in the test with HOP-92 and in the test on SW-620 was > 100 µM (inactive) each time.

Consider `CCN(CC)c1c(C(=O)/C=C/c2ccc(F)cc2)c(-c2ccccc2)nn(C)c1=O`, for which the GI50 with CCRF-CEM was 2.11 µM (inactive); in the test with SNB-75 it was 4.51 µM (inactive); in the test with KM12, 4.85 µM (inactive); in the test with OVCAR-4 it was 4.24 µM (inactive); in the test on U-251, 5.98 µM (inactive); in the test on UO-31 it was 11.3 µM (inactive). Further, the GI50 in the test on 786-0 is 10.3 µM (inactive); in the test with RXF 393, 3.13 µM (inactive); in the test with HCT-15 it was 10.4 µM; in the test on HCT-116, 3.87 µM (inactive); with IGROV-1, 5.98 µM (inactive); with NCI-H522, 3.57 µM (inactive). The GI50 in the test with COLO 205 is 4.25 µM (inactive); with HOP-92 it was 3.85 µM (inactive); with SW-620, 8.59 µM (inactive).

Consider `NC1=NN(c2ccccc2)C(=O)C1C(=O)C(=O)Nc1ccc(Cl)c(Cl)c1` (configuration not stated), for which the GI50 with CCRF-CEM was 96.4 µM (inactive); with SNB-75, 37.2 µM (inactive); in the test on KM12 it was > 100 µM (inactive); with OVCAR-4 it was > 100 µM (inactive); in the test with U-251, > 100 µM (inactive); in the test with UO-31 it was > 100 µM (inactive). Also, the GI50 in the test on 786-0 is > 100 µM (inactive); with RXF 393, > 100 µM (inactive); with HCT-15, 68.7 µM; in the test with HCT-116, > 100 µM (inactive); in the test with IGROV-1 it was > 100 µM (inactive); in the test with NCI-H522, 84.9 µM (inactive). For the same compound, the GI50 in the test on COLO 205, in the test on HOP-92 and in the test on SW-620 was > 100 µM (inactive) in each case.

For `Cc1c2ccccc2c(=O)n2c(-c3ccccn3)cccc12`, the GI50 in the test with CCRF-CEM, in the test on SNB-75, in the test on KM12, in the test with OVCAR-4, in the test with U-251 and in the test on UO-31 was > 100 µM (inactive) each time. Besides, the GI50 is > 100 µM (inactive) with 786-0; > 100 µM (inactive) in the test with RXF 393; above 100 µM with HCT-15; > 100 µM (inactive) in the test with HCT-116; > 100 µM (inactive) in the test with IGROV-1; > 100 µM (inactive) in the test with NCI-H522. Besides, the GI50 with COLO 205, in the test on HOP-92 and in the test with SW-620 was > 100 µM (inactive) each time.

On to `CCN(CC)C(=O)Cc1c(C(=O)N(CC)CC)c(=O)nc2sccn12`, for which the GI50 with CCRF-CEM, with SNB-75, with KM12, in the test with OVCAR-4, with U-251 and in the test on UO-31 was > 100 µM (inactive) throughout. Besides, the GI50 was > 100 µM (inactive) in the test on 786-0; > 100 µM (inactive) with RXF 393; above 100 µM in the test with HCT-15; > 100 µM (inactive) in the test on HCT-116; > 100 µM (inactive) with IGROV-1; > 100 µM (inactive) with NCI-H522. For the same compound, the GI50 with COLO 205, in the test with HOP-92 and in the test with SW-620 was > 100 µM (inactive) each time.

In the case of `O=C1/C(=C/c2ccc(Cl)cc2)N=C(c2ccccc2)N1c1nc2ccccc2s1`, the GI50 in the test on CCRF-CEM was 47.1 µM (inactive); in the test on SNB-75 it was 77.3 µM (inactive); in the test with KM12, 61.9 µM (inactive); in the test with OVCAR-4 it was 53.1 µM (inactive); in the test with U-251, 42.8 µM (inactive); with UO-31, 37.3 µM (inactive). For the same compound, the GI50 in the test with 786-0 is > 100 µM (inactive); in the test with RXF 393, > 100 µM (inactive); in the test with HCT-15 it was 47.8 µM; in the test with HCT-116, 40.7 µM (inactive); in the test on NCI/ADR-RES it was 34 µM (inactive); in the test on IGROV-1, 34.4 µM (inactive). In addition, the GI50 in the test with T47D is 46.8 µM (inactive); in the test on MDA-MB-231 it was 67.8 µM (inactive); in the test on NCI-H522 it was 24.4 µM (inactive); with HOP-92, 66.4 µM (inactive); in the test with MDA-MB-435, 53 µM (inactive); with SW-620, 64 µM (inactive).

For the compound `CNC(=O)N(C)/N=N/CCCl`, the GI50 in the test on CCRF-CEM, in the test with SNB-75, in the test on KM12, with OVCAR-4, in the test with U-251 and with UO-31 was > 100 µM (inactive) throughout. For the same compound, the GI50 in the test on 786-0 was > 100 µM (inactive); in the test on RXF 393, > 100 µM (inactive); in the test with HCT-15, above 100 µM; in the test with HCT-116, > 100 µM (inactive); in the test on NCI/ADR-RES it was > 100 µM (inactive); with IGROV-1, > 100 µM (inactive). For the same compound, the GI50 with T47D, in the test with MDA-MB-231, in the test with NCI-H522, in the test with COLO 205, in the test with HOP-92 and with MDA-MB-435 was > 100 µM (inactive) in each case. For the same compound, the GI50 in the test with SW-620 is > 100 µM (inactive).

On to `Cc1nc2c(O)cc3c4c(=O)n(C)c(=O)n(C)c4n(Cc4ccccc4)c3c2nc1C`, for which the GI50 in the test on CCRF-CEM was 4.99 µM (inactive); with KM12, 21.2 µM (inactive); in the test on OVCAR-4 it was 11.1 µM (inactive); with U-251 it was 18.3 µM (inactive); with UO-31, 17.6 µM (inactive); with 786-0 it was 17 µM (inactive). Also, the GI50 was 13.2 µM (inactive) in the test on RXF 393; 17.9 µM in the test on HCT-15; 14.4 µM (inactive) with HCT-116; 25.8 µM (inactive) with NCI/ADR-RES; 20.4 µM (inactive) in the test with MDA-MB-231; 13.3 µM (inactive) in the test on COLO 205. In addition, the GI50 in the test on HOP-92 was 13.8 µM (inactive); with MDA-MB-435, 17.4 µM (inactive); in the test on SW-620 it was 19.5 µM (inactive).

In the case of `CSc1ccc2c(cc1=O)[C@@H](NC(=O)c1ccc(Cl)cc1)CCc1cc(O)c(O)c(O)c1-2`, the GI50 is 28.1 µM (inactive) with CCRF-CEM; 27.7 µM (inactive) in the test on SNB-75; 40.4 µM (inactive) in the test on KM12; 29.6 µM (inactive) with OVCAR-4; 21.8 µM (inactive) in the test with U-251; > 100 µM (inactive) with UO-31. Besides, the GI50 is > 100 µM (inactive) in the test with 786-0; > 100 µM (inactive) in the test on RXF 393; 21.6 µM in the test with HCT-15; 18.2 µM (inactive) in the test with HCT-116; 22.1 µM (inactive) in the test with IGROV-1; 15.4 µM (inactive) in the test on NCI-H522. Also, the GI50 with COLO 205 was 62.5 µM (inactive); in the test on HOP-92, > 100 µM (inactive); with SW-620, 19.5 µM (inactive).

Source of the values: ChEMBL document CHEMBL1201862, “PubChem BioAssay data set” (2004).
